Experimental data as given in patent US20080207617A1, “Quinoline Derivatives and Quinazoline Derivatives Inhibiting Autophosphrylation of Flt3 and Medicinal Compositions Containing the Same” (KIRIN BEER KABUSHIKI KAISHA, priority 2002, published 2008).
Counter-ions that a name gives are not always drawn.

Legend:
MOLM13 = assay: Cell growth inhibitory activities on cultured human leukemia cells MOLM-13 (WST-1); format: cell-based; conditions: 3 days culture
FLT3 = target: T1, FLT3 (Homo sapiens, UniProt P36888); assay: Inhibitory activity against FLT3 autophosphorylation using ELISA method; format: cell-based; conditions: MV4-11 cells, 1 hr with compound, read-out: IC50 of FLT3-phosphorylation
T1 sequence (P36888 with tags, fused parts or gaps INS600HVDFREYEYD): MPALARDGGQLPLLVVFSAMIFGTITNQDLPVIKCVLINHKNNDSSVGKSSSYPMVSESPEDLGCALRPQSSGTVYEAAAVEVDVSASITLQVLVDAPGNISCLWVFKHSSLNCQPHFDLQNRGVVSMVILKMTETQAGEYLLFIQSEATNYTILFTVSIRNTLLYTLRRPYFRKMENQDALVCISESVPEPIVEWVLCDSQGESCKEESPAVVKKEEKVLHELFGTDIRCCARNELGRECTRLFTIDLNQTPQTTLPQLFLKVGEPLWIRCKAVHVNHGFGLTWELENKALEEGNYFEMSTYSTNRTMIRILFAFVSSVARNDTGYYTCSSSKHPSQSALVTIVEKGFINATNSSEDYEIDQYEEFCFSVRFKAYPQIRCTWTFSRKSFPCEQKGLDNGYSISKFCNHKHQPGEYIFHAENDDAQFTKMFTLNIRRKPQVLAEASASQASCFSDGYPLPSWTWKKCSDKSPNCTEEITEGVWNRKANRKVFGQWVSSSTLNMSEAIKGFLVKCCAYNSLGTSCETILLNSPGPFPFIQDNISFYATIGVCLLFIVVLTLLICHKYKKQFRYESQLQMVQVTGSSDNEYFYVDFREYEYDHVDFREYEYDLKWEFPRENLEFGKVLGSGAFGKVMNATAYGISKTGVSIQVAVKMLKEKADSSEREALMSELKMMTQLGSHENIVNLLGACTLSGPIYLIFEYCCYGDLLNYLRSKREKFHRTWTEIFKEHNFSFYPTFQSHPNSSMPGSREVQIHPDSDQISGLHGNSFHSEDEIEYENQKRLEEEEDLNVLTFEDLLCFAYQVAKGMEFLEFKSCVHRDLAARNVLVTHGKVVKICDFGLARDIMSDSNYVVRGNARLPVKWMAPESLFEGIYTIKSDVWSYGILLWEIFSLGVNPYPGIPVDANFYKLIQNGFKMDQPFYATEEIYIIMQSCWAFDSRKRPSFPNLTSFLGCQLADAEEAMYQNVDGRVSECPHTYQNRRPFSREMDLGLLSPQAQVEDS
Protocol: Pharmacological Test Example 1
Measurement of Inhibitory Activity Against FLT3 Autophosphorylation Using ELISA Method
Human leukemia cells MV4-11 (ATCC number: CRL-9591) were cultured in an IMDM medium containing 10% fetal calf serum (purchased from SIGMA) within a 5% carbon dioxide incubator until 50 to 90% confluent. The harvested cells were seeded into 96-wells, plates, containing an IMDM medium containing 0.1% fetal calf serum, in a 96-well multiscreen plate in an amount of 5.0×10^5 per well, a solution of the test compound in dimethyl sulfoxide was added to each well, and the cultivation was continued at 37° C. for one hr. The medium was removed, followed by washing with phosphate buffered saline. A lysis buffer (60 μl) (20 mM HEPES (pH 7.4), 150 mM NaCl, 0.2% Triton X-100, 10% glycerol, 5 mM sodium orthovanadylate, 5 mM disodium ethylenediaminetetraacetate, and 2 mM Na4P2O7) was then added thereto. The mixture was shaken at 4° C. for 2 hr to prepare a cell extracts.
Separately, phosphate buffered saline (50 μl, pH 7.4) containing 5 μg/ml of anti-phospho-tyrosine antibody (PY20; purchased from Transduction Laboratories) was added to a 96-well microplate for ELISA (Maxisorp; purchased from NUNC), followed by standing at 4° C. overnight to form a solid phase on the wells. After washing of the plate, 250 μl of a blocking solution was added, followed by standing at room temperature for 3 hr to perform blocking. After washing, the whole quantity of the cell extract was transferred to the wells, and the plate was then allowed to stand at 4° C. overnight. After washing, an anti-FLT3 antibody (Flt3/Flk2 (C-20), purchased from Santa Cruz Biotechnology) was allowed to react at room temperature for 2 hr, and, after washing, a peroxidase-labeled anti-rabbit Ig antibody (purchased from Amersham) was allowed to react at room temperature for one hr. After washing, a chromophoric substrate for peroxidase (purchased from Sumitomo Bakelite Co., Ltd.) was added thereto to initiate a reaction. After a suitable level of color development, a reaction termination solution was added to stop the reaction, and the absorbance at 450 nm was measured with a microplate reader. The FLT3-phosphorylation activity for each well was determined by presuming the absorbance without the addition of the medicament to be 100% FLT3-phosphorylation activity and the absorbance with the addition of a large excess of a positive control (Compound 1, 10 μM) to be 0% FLT3-phosphorylation activity. The concentration of the test compound was varied on several levels, the FLT3-phosphorylation inhibitory activity was determined for each case, and the concentration of the test compound necessary for inhibiting 50% of FLT3-phosphorylation (IC50) was calculated.

## COc1cc2nccc(Oc3ccc(NC(=O)NCCC(C)(C)C)cc3)c2cc1OC [Compound 1, 1-[4-(6,7-Dimethoxy-quinolin-4-yloxy)-phenyl]-3-(3,3-dimethyl-butyl)-urea hydrochloride]
MOLM13; Homo sapiens, MOLM-13, 72 h
  IC50: 1 nM
FLT3
  IC50: 2 nM

## COc1cc2nccc(Oc3c(Cl)cc(NC(=O)NCCC(C)(C)C)cc3Cl)c2cc1OC [Compound 6, 1-[3,5-Dichloro-4-(6,7-dimethoxy-quinolin--4-yloxy)-phenyl]-3-(3,3-dimethyl-butyl)-urea]
MOLM13; Homo sapiens, MOLM-13, 72 h
  IC50: 21 nM
FLT3
  IC50: 109 nM

## COc1cc2nccc(Oc3ccc(NC(=O)NCCC(C)(C)C)cc3Cl)c2cc1OC [Compound 8, 1-[3-Chloro-4-(6,7-dimethoxy-quinolin-4-yloxy)-phenyl]-3-(3,3-dimethyl-butyl)-urea]
MOLM13; Homo sapiens, MOLM-13, 72 h
  IC50: 3 nM
FLT3
  IC50: < 1 nM

## COc1cc2nccc(Oc3ccc(NC(=O)NCCC(C)(C)C)cc3F)c2cc1OC [Compound 10, 1-[4-(6,7-Dimethoxy-quinolin-4-yloxy)-3-fluoro-phenyl]-3-(3,3-dimethyl-butyl)-urea hydrochloride]
MOLM13; Homo sapiens, MOLM-13, 72 h
  IC50: 2 nM
FLT3
  IC50: < 1 nM

## COc1cc2c(Oc3ccc(NC(=O)NCCC(C)(C)C)c(F)c3)ccnc2cc1OCCN1CCOCC1 [Compound 41, 1-(3,3-Dimethyl-butyl)-3-{2-fluoro-4-[6-methoxy-7-(2-morpholin-4-yl-ethoxy)-quinolin-4-yloxy]-phenyl}-urea hydrochloride]
MOLM13; hydrochloride
  IC50: 75 nM
FLT3
  IC50: 308 nM

## COc1cc2c(Oc3ccc(NC(=O)NCCC(C)(C)C)c(F)c3)ccnc2cc1OCCN1CCCCC1 [Compound 43, 1-(3,3-Dimethyl-butyl)-3-{2-fluoro-4-[6-methoxy-7-(2-piperidin-1-yl-ethoxy)-quinolin-4-yloxy]-phenyl}-urea hydrochloride]
MOLM13; Homo sapiens, MOLM-13, 72 h
  IC50: 22 nM
FLT3
  IC50: 216 nM

## COc1cc2c(Oc3ccc(NC(=O)NCCC(C)(C)C)cc3F)ccnc2cc1OCCN1CCCCC1 [Compound 44, 1-(3,3-Dimethyl-butyl)-3-{3-fluoro-4-[6-methoxy-7-(2-piperidin-1-yl-ethoxy)-quinolin-4-yloxy]-phenyl}-urea]
MOLM13; Homo sapiens, MOLM-13, 72 h
  IC50: 3 nM
FLT3
  IC50: 200 nM
